Data published in patent US9050341B2, “Methods of treating drug resistant and other tumors by administering 6,7-dialkoxy quinazoline derivatives” (NATCO PHARMA LIMITED, priority 2009, dated 2015).

Assays:
Test in all cases: KinomeScan kinase profiling
Assay type in all cases: binding
[1] = target: T1, AAK1 (Homo sapiens, UniProt Q2M2I8)
T1 construct: host or cells: E. coli host derived from BL21 (T7 phage lysate)
Procedure, shortened: (§1)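 Kinases were expressed as T7 phage fusions in a BL21-derived E. coli host and the cleared lysates were used. Ligand beads were blocked with biotin and buffer (1% BSA, 0.05% Tween 20, 1 mM DTT). Compounds came from 40× DMSO stocks, and phage in the eluates was titred by qPCR.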

[2] = target: T2, ABL1 (F317L) (Homo sapiens, UniProt P00519, F317L)
T2 construct: host or cells: E. coli host derived from BL21 (T7 phage lysate)
Procedure, shortened: as §1

[3] = target: T3, ADCK4 (Homo sapiens, UniProt Q96D53)
T3 construct: host or cells: E. coli host derived from BL21 (T7 phage lysate)
Procedure, shortened: as §1

[4] = target: T4, AURKB (Homo sapiens, UniProt Q96GD4)
T4 construct: purchased Ambit Biosciences Corp (KinomeScan); host or cells: E. coli host derived from the BL21 strain, T7 phage
Procedure, shortened: as §1

[5] = target: T5, AURKC (Homo sapiens, UniProt Q9UQB9)
T5 construct: purchased Ambit Biosciences Corp (KinomeScan); host or cells: E. coli host derived from the BL21 strain, T7 phage
Procedure, shortened: as §1

[6] = target: T6, BIKE (Homo sapiens, UniProt Q9NSY1)
T6 construct: purchased Ambit Biosciences Corp (KinomeScan); host or cells: E. coli host derived from the BL21 strain, T7 phage
Procedure, shortened: as §1

[7] = target: T7, BMPR1B (Homo sapiens, UniProt O00238)
T7 construct: purchased Ambit Biosciences Corp (KinomeScan); host or cells: E. coli host derived from the BL21 strain, T7 phage
Procedure, shortened: as §1

[8] = target: T8, BRSK1 (Homo sapiens, UniProt Q8TDC3)
T8 construct: purchased Ambit Biosciences Corp (KinomeScan); host or cells: E. coli host derived from the BL21 strain, T7 phage
Procedure, shortened: as §1

[9] = target: T9, CDK8 (Homo sapiens, UniProt P49336)
T9 construct: host or cells: T7 phage in E. coli (BL21-derived)
Procedure, shortened: as §1

[10] = target: T10, CSNK1A1L (Homo sapiens, UniProt Q8N752)
T10 construct: host or cells: T7 phage in E. coli (BL21-derived)
Procedure, shortened: as §1

[11] = target: T11, CSNK2A2 (Homo sapiens, UniProt P19784)
T11 construct: purchased Ambit Biosciences Corp (KinomeScan); host or cells: T7 phage in E. coli host derived from BL21
Procedure, shortened: as §1

[12] = target: T12, EPHA5 (Homo sapiens, UniProt P54756)
T12 construct: host or cells: E. coli host derived from BL21, T7 phage lysate
Procedure, shortened: as §1

[13] = target: T13, FRK (Homo sapiens, UniProt P42685)
T13 construct: host or cells: E. coli host derived from BL21, infected with T7 phage
Procedure, shortened: as §1

[14] = target: T14, HCK (Homo sapiens, UniProt P08631)
T14 construct: host or cells: E. coli host derived from BL21, infected with T7 phage
Procedure, shortened: as §1

[15] = target: T15, JNK1 (Homo sapiens, UniProt P45983)
T15 construct: host or cells: T7 phage in E. coli host derived from BL21
Procedure, shortened: as §1

[16] = target: T16, JNK2 (Homo sapiens, UniProt P45984)
T16 construct: host or cells: T7 phage in E. coli host derived from BL21
Procedure, shortened: as §1

[17] = target: T17, KIT (Homo sapiens, UniProt P10721)
T17 construct: host or cells: T7 phage in E. coli host derived from BL21
Procedure, shortened: as §1

[18] = target: T18, MEK1 (Homo sapiens, UniProt Q02750)
T18 construct: host or cells: E. coli derived from BL21, infected with T7 phage
Procedure, shortened: as §1

[19] = target: T19, MLK2 (Homo sapiens, UniProt Q02779)
T19 construct: host or cells: T7 phage in E. coli host derived from BL21
Procedure, shortened: as §1

[20] = target: T20, PAK3 (Homo sapiens, UniProt O75914)
T20 construct: host or cells: E. coli host derived from the BL21 strain, infected with T7 phage
Procedure, shortened: as §1

[21] = target: T21, RPS6KA4 (Kin.Dom.-2-C-terminal) (Homo sapiens, UniProt O75676)
T21 construct: RPS6KA4(KIN.DOM.2); host or cells: E. coli host derived from BL21, T7 phage lysate
Procedure, shortened: as §1

[22] = target: T22, SRMS (Homo sapiens, UniProt Q9H3Y6)
T22 construct: host or cells: E. coli host derived from the BL21 strain, T7 phage lysate
Procedure, shortened: as §1

[23] = target: T23, YSK1 (Homo sapiens, UniProt O00506)
T23 construct: host or cells: E. coli host derived from the BL21 strain, infected with T7 phage
Procedure, shortened: as §1

T11 sequence (P19784 whole entry): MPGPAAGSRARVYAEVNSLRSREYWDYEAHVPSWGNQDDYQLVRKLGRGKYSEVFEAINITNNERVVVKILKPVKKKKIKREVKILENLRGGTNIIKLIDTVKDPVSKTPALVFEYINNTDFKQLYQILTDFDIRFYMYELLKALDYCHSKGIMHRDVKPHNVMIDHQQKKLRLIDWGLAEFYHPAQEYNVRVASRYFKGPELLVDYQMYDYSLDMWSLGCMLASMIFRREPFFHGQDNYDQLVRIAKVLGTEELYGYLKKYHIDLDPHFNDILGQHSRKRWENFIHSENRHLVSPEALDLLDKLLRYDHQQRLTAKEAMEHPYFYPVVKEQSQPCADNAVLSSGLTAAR
T23 sequence (O00506 whole entry): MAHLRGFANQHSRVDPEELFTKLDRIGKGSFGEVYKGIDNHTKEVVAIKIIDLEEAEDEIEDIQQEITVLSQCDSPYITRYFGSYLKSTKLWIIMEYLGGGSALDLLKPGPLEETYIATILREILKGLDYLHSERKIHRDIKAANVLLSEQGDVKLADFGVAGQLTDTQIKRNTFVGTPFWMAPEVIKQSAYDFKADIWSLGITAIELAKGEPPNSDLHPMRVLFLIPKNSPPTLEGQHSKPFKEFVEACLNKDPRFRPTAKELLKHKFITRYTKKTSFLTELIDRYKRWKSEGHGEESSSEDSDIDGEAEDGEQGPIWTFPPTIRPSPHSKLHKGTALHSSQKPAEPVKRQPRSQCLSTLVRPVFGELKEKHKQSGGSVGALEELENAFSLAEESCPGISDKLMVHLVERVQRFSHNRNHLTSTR
T1 sequence (Q2M2I8 whole entry): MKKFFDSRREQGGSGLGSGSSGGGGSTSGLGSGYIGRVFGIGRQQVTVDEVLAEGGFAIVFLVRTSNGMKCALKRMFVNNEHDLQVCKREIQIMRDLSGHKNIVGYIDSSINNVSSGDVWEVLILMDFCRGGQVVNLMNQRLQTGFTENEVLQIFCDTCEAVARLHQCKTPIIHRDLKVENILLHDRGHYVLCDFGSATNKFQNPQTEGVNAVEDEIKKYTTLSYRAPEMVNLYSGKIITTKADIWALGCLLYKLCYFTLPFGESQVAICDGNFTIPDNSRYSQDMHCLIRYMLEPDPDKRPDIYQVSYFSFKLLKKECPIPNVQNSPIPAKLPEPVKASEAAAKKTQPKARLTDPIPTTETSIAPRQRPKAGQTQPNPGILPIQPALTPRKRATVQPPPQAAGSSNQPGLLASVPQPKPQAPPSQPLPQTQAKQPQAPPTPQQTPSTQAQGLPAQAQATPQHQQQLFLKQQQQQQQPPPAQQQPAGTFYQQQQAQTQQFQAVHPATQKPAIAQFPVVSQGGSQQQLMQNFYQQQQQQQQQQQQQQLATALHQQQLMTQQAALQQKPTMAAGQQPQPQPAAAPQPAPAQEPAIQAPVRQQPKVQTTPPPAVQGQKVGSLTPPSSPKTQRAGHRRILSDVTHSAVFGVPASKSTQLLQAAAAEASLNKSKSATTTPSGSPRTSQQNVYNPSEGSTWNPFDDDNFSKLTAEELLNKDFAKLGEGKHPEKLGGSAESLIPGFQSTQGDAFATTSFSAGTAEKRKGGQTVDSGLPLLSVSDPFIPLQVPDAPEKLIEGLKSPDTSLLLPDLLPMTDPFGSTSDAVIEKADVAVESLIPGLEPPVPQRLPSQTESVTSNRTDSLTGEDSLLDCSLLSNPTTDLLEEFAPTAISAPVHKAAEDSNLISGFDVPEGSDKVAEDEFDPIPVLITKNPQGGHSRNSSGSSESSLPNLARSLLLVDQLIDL
T8 sequence (Q8TDC3 whole entry): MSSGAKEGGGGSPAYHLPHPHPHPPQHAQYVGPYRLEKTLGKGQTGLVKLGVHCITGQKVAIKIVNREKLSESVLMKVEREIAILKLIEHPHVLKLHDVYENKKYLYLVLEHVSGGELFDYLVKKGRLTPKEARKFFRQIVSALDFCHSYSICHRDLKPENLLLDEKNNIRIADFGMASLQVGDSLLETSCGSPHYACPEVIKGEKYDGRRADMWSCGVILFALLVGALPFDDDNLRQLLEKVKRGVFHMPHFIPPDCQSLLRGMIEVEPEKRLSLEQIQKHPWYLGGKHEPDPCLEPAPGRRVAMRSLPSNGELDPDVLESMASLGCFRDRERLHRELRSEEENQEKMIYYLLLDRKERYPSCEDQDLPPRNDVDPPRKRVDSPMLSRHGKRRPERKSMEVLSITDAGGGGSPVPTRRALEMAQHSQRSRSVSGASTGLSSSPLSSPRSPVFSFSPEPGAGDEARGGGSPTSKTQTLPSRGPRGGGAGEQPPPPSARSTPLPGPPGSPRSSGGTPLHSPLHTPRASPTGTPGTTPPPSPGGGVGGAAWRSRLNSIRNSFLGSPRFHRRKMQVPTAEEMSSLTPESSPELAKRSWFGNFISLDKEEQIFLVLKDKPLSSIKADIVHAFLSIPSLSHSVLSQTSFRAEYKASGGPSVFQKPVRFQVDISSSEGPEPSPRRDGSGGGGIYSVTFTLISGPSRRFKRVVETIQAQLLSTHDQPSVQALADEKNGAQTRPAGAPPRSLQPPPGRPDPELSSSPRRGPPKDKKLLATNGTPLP
T20 sequence (O75914 whole entry): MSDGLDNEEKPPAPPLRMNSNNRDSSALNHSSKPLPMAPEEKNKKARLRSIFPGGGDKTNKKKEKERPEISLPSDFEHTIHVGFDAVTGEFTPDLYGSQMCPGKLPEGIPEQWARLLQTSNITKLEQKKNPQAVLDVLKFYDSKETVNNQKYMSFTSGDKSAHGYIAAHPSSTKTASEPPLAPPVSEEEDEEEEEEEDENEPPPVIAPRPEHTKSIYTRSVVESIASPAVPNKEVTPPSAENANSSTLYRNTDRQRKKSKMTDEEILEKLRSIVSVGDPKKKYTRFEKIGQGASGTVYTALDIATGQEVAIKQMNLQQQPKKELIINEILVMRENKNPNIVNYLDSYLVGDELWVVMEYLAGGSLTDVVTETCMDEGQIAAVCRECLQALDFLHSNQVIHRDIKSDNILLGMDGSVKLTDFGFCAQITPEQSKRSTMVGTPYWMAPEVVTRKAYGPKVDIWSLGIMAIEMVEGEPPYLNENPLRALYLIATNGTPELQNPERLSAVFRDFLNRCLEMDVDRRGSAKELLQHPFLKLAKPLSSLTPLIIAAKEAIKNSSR
T2 sequence (P00519 whole entry F317L): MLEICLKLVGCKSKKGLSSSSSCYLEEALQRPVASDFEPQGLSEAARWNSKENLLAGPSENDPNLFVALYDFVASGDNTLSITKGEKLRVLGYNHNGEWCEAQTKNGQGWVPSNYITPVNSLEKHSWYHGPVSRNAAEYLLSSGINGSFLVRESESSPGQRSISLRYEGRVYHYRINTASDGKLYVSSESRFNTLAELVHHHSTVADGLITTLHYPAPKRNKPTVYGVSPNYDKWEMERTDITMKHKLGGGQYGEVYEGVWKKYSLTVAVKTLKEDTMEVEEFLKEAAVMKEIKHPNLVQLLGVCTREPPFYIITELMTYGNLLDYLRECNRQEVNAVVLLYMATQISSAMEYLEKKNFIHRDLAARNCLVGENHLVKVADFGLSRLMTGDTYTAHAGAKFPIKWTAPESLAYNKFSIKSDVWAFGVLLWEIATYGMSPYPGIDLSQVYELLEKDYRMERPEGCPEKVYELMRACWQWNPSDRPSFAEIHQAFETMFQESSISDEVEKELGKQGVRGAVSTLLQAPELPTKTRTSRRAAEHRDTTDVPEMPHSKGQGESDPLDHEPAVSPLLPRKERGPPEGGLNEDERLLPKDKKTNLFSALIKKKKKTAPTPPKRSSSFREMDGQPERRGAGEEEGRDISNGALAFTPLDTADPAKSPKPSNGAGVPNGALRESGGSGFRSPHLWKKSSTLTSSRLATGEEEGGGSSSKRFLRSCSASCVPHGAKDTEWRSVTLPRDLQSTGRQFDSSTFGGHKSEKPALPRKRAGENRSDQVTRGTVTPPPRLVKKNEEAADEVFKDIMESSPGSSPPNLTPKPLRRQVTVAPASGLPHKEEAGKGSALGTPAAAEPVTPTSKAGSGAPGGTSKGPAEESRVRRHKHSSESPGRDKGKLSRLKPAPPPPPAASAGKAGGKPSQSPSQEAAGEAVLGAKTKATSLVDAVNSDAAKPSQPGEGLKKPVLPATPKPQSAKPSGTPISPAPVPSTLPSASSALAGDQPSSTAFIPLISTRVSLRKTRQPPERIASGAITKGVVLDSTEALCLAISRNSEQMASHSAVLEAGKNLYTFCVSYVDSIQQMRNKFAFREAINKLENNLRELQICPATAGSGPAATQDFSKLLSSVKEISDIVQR
T18 sequence (Q02750 whole entry): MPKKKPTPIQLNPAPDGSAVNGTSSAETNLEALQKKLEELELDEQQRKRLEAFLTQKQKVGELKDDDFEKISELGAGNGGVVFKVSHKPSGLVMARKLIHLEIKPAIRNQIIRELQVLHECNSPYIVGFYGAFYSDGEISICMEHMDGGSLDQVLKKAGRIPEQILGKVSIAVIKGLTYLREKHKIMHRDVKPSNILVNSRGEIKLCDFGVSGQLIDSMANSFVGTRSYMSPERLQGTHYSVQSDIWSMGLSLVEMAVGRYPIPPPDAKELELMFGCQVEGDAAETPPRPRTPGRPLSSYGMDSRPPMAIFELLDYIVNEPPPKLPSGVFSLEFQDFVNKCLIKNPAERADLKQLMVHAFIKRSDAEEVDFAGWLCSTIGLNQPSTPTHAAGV
T16 sequence (P45984 whole entry): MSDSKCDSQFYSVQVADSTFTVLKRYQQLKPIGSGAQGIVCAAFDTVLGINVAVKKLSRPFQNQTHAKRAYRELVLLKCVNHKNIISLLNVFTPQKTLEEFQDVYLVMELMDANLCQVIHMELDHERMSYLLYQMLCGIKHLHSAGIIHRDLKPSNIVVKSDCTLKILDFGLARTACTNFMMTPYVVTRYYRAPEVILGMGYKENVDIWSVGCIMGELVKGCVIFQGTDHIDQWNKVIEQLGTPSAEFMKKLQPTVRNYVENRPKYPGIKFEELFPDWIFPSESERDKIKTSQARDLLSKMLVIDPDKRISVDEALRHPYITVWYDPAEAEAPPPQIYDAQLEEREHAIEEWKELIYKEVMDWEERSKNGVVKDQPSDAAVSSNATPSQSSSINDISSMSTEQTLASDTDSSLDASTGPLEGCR

`C#Cc1cccc(Nc2ncnc3cc(OC)c(OCCCN4CCOCC4)cc23)c1` [NRC-2694, N-(3-ethylnylphenyl)-7-methoxy-6-[3-(4-morpholinyl)propoxy]-4-quinazolinamine] was tested, and the “% Ctrl @ 10000 nM” value [1] was 38 % Ctrl, the “% Ctrl @ 10000 nM” value [2] was 33 % Ctrl and the “% Ctrl @ 10000 nM” value [3] was 14 % Ctrl. For the same compound, the “% Ctrl @ 10000 nM” value [4] was 56 % Ctrl, the “% Ctrl @ 10000 nM” value [5] was 47 % Ctrl and the “% Ctrl @ 10000 nM” value [6] was 36 % Ctrl. The “% Ctrl @ 10000 nM” value [7] was 78 % Ctrl, the “% Ctrl @ 10000 nM” value [8] was 53 % Ctrl and the “% Ctrl @ 10000 nM” value [9] was 100 % Ctrl. The “% Ctrl @ 10000 nM” value [10] was 44 % Ctrl, the “% Ctrl @ 10000 nM” value [11] was 52 % Ctrl and the “% Ctrl @ 10000 nM” value [12] was 86 % Ctrl. The “% Ctrl @ 10000 nM” value [13] was 10 % Ctrl, the “% Ctrl @ 10000 nM” value [14] was 17 % Ctrl and the “% Ctrl @ 10000 nM” value [15] was 99 % Ctrl. For the same compound, the “% Ctrl @ 10000 nM” value [16] was 95 % Ctrl, the “% Ctrl @ 10000 nM” value [17] was 26 % Ctrl and the “% Ctrl @ 10000 nM” value [18] was 50 % Ctrl. The “% Ctrl @ 10000 nM” value [19] was 83 % Ctrl, the “% Ctrl @ 10000 nM” value [20] was 55 % Ctrl and the “% Ctrl @ 10000 nM” value [21] was 8.9 % Ctrl. The “% Ctrl @ 10000 nM” value [22] was 100 % Ctrl and the “% Ctrl @ 10000 nM” value [23] was 69 % Ctrl.
